Biological target: T1, GPCR GPR40 (Rattus norvegicus, UniProt Q8K3T4)
T1 construct: expressed in transfected cells; host or cells: HEK293
Experiment: In vitro FLIPR assay with recombinant cells which express the GPCR GPR40
Type: cell-based
Settings: recombinant HEK293 cells expressing GPR40; agonist-induced change in intracellular Ca2+ (Fluo-4, FLIPR); 100% = 10 μM reference agonist linoleic acid
Protocol: In Vitro FLIPR Assay with Recombinant Cells which Express the GPCR GPR40
Function-testing assays were performed by means of the FLIPR technique (“Fluorescence Imaging Plate Reader”, Molecular Devices Corp.). For this purpose, agonist-induced changes were determined in the intracellular concentration of Ca^2+ in recombinant HEK293 cells which expressed the GPCR GPR40.
For the studies, cells were sown into 96-well microtiter plates (60 000 cells/well) and left to grow overnight. The medium was removed and the cells were incubated in buffer which contains the fluorescent dye Fluo-4. After this loading with dye, the cells were washed, test substance was added and changes were measured in the intracellular Ca^2+ concentration in the FLIPR instrument. Results were presented as the percentage change relative to the control (0%: no test substance added; 100%: 10 μM reference agonist linoleic acid added) and used to calculate dose/effect curves, and EC50 values were determined.

T1 sequence (Q8K3T4 whole entry): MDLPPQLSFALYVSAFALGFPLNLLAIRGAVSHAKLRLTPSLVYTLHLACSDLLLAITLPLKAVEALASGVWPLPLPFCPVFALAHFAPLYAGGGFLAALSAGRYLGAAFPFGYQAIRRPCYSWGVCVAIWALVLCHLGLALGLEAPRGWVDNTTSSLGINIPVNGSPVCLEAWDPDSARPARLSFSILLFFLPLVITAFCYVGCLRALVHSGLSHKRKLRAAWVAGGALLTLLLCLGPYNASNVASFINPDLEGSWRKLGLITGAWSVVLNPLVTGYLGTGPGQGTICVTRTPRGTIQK

SMILES | EC50 [nM]
CC#CC(CC(=O)O)c1ccc(OCC2(COc3ccc(C#N)c(Cl)c3)CC2)cc1 (stereo not drawn) [Example 12, 3-{4-[1-(3-Chloro-4-cyanophenoxymethyl)cyclopropylmethoxy]phenyl}hex-4-ynoic acid] | 140
CC#CC(CC(=O)O)c1ccc(OCC2(COc3cccc(C(C)(C)C)c3)CCC2)cc1 (stereo not drawn) [Example 5, 3-{4-[1-(3-tert-Butylphenoxymethyl)cyclobutylmethoxy]phenyl}hex-4-ynoic acid] | 2560
CC#CC(CC(=O)O)c1ccc(OCC2(COc3ccccc3F)CC2)cc1 (stereo not drawn) [Example 21, 3-{4-[1-(2-Fluorophenoxymethyl)cyclopropylmethoxy]phenyl}hex-4-ynoic acid] | 110
COC(CC(=O)O)c1ccc(OCC2(COc3ccc(C(F)(F)F)cn3)CC2)cc1 (stereo not drawn) [Example 16, 3-Methoxy-3-{4-[1-(5-trifluoromethylpyridin-2-yloxymethyl)cyclopropylmethoxy]phenyl}-propionic acid] | 2460
CC#CC(CC(=O)O)c1ccc(OCC2(COc3ccc(C(F)(F)F)cc3Cl)COC2)cc1 (stereo not drawn) [Example 4, 3-{4-[3-(2-Chloro-4-trifluoromethylphenoxymethyl)oxetan-3-ylmethoxy]phenyl}hex-4-ynoic acid] | 2550
CC#CC(CC(=O)O)c1ccc(OCC2(COc3cccc(C)c3)CCC2)cc1 (stereo not drawn) [Example 7, 3-[4-(1-m-Tolyloxymethylcyclobutylmethoxy)phenyl]hex-4-ynoic acid] | 1540
CC#CC(CC(=O)O)c1ccc(OCC2(COc3ccc(F)c(Cl)c3)CC2)cc1 (stereo not drawn) [Example 22, 3-{4-[1-(3-Chloro-4-fluorophenoxymethyl)cyclopropylmethoxy]phenyl}hex-4-ynoic acid] | 330
CC#CC(CC(=O)O)c1ccc(OCC2(COc3ccc(C(F)(F)F)nc3)CC2)cc1 (stereo not drawn) [Example 13, 3-{4-[1-(6-Trifluoromethylpyridin-3-yloxymethyl)cyclopropylmethoxy]phenyl}hex-4-ynoic acid] | 710
CC#CC(CC(=O)O)c1ccc(OCC2(COc3cccc(F)c3)CC2)cc1 (stereo not drawn) [Example 20, 3-{4-[1-(3-Fluorophenoxymethyl)cyclopropylmethoxy]phenyl}hex-4-ynoic acid] | 70
CC#CC(CC(=O)O)c1ccc(OCC2(COc3ccc(C(F)(F)F)cc3Cl)CC2)cc1 (stereo not drawn) [Example 15, 3-{4-[1-(2-Chloro-4-trifluoromethylphenoxymethyl)cyclopropylmethoxy]phenyl}hex-4-acid] | 1580
CC#CC(CC(=O)O)c1ccc(OCC2(COc3ccccc3)CC2)cc1 (stereo not drawn) [Example 10, 3-[4-(1-Phenoxymethylcyclopropylmethoxy)phenyl]hex-4-ynoic acid] | 70
CC#CC(CC(=O)O)c1ccc(OCC2(COc3ccc(C(F)(F)F)cn3)CC2)cc1 (stereo not drawn) [Example 14, 3-{4-[1-(5-Trifluoromethylpyridin-2-yloxymethyl)cyclopropylmethoxy]phenyl}hex-4-ynoic acid] | 170
CC#CC(CC(=O)O)c1ccc(OCC2(COc3cccc(C)c3)CC2)cc1 (stereo not drawn) [Example 11, 3-[4-(1-m-Tolyloxymethylcyclopropylmethoxy)phenyl]hex-4-ynoic acid] | 150
CC#CC(CC(=O)O)c1ccc(OCC2(COc3cccc(C(C)(C)C)c3)CC2)cc1 (stereo not drawn) [Example 1, 3-{4-[1-(3-tert-Butylphenoxymethyl)cyclopropylmethoxy]phenyl}hex-4-ynoic acid] | 730
CC#CC(CC(=O)O)c1ccc(OCC2(COc3ccc(F)cc3)CC2)cc1 (stereo not drawn) [Example 19, 3-{4-[1-(4-Fluorophenoxymethyl)cyclopropylmethoxy]phenyl}hex-4-ynoic acid] | 70
CC#CC(CC(=O)O)c1ccc(OCC2(COc3cccc(Cl)c3)CC2)cc1 (stereo not drawn) [Example 3, 3-{4-[1-(3-Chlorophenoxymethyl)cyclopropylmethoxy]phenyl}hex-4-ynoic acid] | 290
CC#CC(CC(=O)O)c1ccc(OCC2(COc3cc(C(F)(F)F)cc(C(F)(F)F)c3)CC2)cc1 (stereo not drawn) [Example 9, 3-{4-[1-(3,5-Bis(trifluoromethyl)phenoxymethyl)cyclopropylmethoxy]phenyl}hex-4-ynoic acid] | 1660
CC#CC(CC(=O)O)c1ccc(OCC2(COc3ccccc3C)CC2)cc1 (stereo not drawn) [Example 18, 3-[4-(1-o-Tolyloxymethylcyclopropylmethoxy)phenyl]hex-4-ynoic acid] | 60
CC#CC(CC(=O)O)c1ccc(OCC2(COc3ccc(C(F)(F)F)cc3)CCC2)cc1 (stereo not drawn) [Example 6, 3-{4-[1-(4-Trifluoromethylphenoxymethyl)cyclobutylmethoxy]phenyl}hex-4-ynoic acid] | 1320
CC#CC(CC(=O)O)c1ccc(OCC2(COc3ccccc3)CCC2)cc1 (stereo not drawn) [Example 8, 3-[4-(1-Phenoxymethylcyclobutylmethoxy)phenyl]hex-4-ynoic acid] | 450
CC#CC(CC(=O)O)c1ccc(OCC2(COc3ccc(C(F)(F)F)cc3)CC2)cc1 (stereo not drawn) [Example 2, 3-{4-[1-(4-Trifluoromethylphenoxymethyl)cyclopropylmethoxy]phenyl}hex-4-ynoic acid] | 370
